The source of these data is patent publication US10221160B2, “Metalloenzyme inhibitor compounds” (Mycovia Pharmaceuticals, Inc., priority 2012, dated 2019).

Molecules are shown by their SMILES. Converted amounts (≈) assume the structure as drawn. Like-named read-outs stand apart in the source and are kept apart here. A value given as a limit tells only on which side of the number the result lay.

In test [1] the test system is C. albicans. Nature of the test: Minimum Inhibitory Concentration (MIC), CLSI M27-A2. It counts as cell-based. The following applies: for MIC: Candida albicans. As to the method:
A. Minimum Inhibitory Concentration (MIC) Compounds were assessed for their ability to inhibit the growth of common strains of fungus, C. albicans using a standardized procedure (CLSI M27-A2). Stock solutions of the test compounds and standards were prepared in DMSO at 1,600 μg/mL (C. albicans). Eleven, serial, one-half dilutions of compounds were prepared in 96-well plates in RPMI+MOPS. The assay concentration ranges were 8-0.001 μg/mL (C. albicans). Cell suspensions of C. albicans were prepared and added to each well at concentrations of approximately 3.7×10^3 colony-forming-units per milliliter (cfu/mL). All testing was in duplicate. The inoculated plates were incubated for approximately 48 h at 35±1° C. At the completion of incubation the wells of each plate were evaluated visually for the presence of fungal growth. […] For QC purposes C. krusei isolate ATCC 6258 (4.0×10^3 cfu/mL) was included in the VOR assay.

Test [2] addresses CYP3A4 (Homo sapiens (Human), UniProt P08684). The experiment in a line: Inhibition of liver cytochrome P450 enzymes (pooled human liver microsomes). It counts as in vitro ADME. As to the method: A. […] Solutions of each test compound were separately prepared at concentrations of 20000, 6000, 2000, 600, 200, and 60 μM by serial dilution with DMSO:MeCN (50:50 v/v). The individual test compound solutions were then diluted 20-fold with DMSO:MeCN:deionized water (5:5:180 v/v/v) to concentrations of 1000, 300, 100, 30, 10, and 3 μM. […] The mixed inhibitor solutions were then diluted 20-fold with DMSO:MeCN:deionized water (5:5:180 v/v/v) to concentrations of 300, 100, 30, 10, 3, 1, 0.3, and 0.1 μM. The percent of organic solvent attributable to the test compound or inhibitor mixture in the final reaction mixture was 2% v/v. Pooled human liver microsome suspension (20 mg/mL) was diluted with phosphate buffer to obtain a 5 mg/mL suspension. A solution of NADPH was prepared in phosphate buffer at a concentration of 5 mM. Separate stock solutions of each substrate were prepared in DMSO:MeCN (50:50 v/v), mixed, and diluted in phosphate buffer to obtain a single solution containing each substrate at five times its experimentally determined Km concentration. […] A portion of the supernatant was analyzed by gradient reverse-phase HPLC with detection by electrospray ionization triple quadrupole mass spectrometry in the positive ion mode. Data was fitted to sigmoid dose-response curves and the inhibitory potency of each test compound was determined as its IC50 value.
(In general: Liver microsomes are vesicles of endoplasmic reticulum, rich in cytochrome P450 enzymes.)

Where [3] appears, read: 48 h, about 50% growth reduction, approximately 48 h at 35 °C, read-out: Candida MIC.
Setting [4] is: rating scale, read-out: Candida MIC Rating.

Sequence of CYP3A4 (P08684 whole entry): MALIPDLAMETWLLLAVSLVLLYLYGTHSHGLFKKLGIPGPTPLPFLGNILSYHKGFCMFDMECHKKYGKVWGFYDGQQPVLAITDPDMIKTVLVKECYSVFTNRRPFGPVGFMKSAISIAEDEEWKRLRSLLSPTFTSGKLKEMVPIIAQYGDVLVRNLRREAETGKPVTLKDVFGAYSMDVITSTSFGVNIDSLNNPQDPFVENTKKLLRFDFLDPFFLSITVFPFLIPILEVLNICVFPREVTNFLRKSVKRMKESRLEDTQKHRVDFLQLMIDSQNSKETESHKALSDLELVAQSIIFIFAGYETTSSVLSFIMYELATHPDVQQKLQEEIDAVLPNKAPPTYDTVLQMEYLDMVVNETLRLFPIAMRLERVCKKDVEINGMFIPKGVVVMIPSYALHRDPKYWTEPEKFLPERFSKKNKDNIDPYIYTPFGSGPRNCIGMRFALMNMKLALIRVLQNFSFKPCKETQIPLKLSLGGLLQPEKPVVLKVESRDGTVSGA

A word on the MIC: it is the smallest concentration in the dilution series that meets the test's criterion for growth inhibition. A word on the IC50: it is the concentration that inhibits the measured activity by half. Turning to `OC(Cn1cnnn1)(c1ccc(F)cc1F)C(F)(F)c1ccc(-c2ccc(C(F)(F)F)cc2)cn1` (stereo not drawn) [Example 2, 2-(2,4-Difluorophenyl)-1,1-difluoro-3-(1H-tetrazol-1-yl)-1-(5-(4-(trifluoromethyl)phenyl)pyridin-2-yl) propan-2-ol], the MIC in test [1] (setting [3]) is at most 0.016 µg/mL; in test [1] (setting [4]), under 0.5 µg/mL. In test [2], this compound yielded an IC50 of over 60 µM.

`O=C(Nc1ccc(-c2ccc(C(F)(F)C(O)(Cn3cnnn3)c3ccc(F)cc3F)nc2)cc1)C(F)(F)F` (stereo not drawn) [Example 37, N-(4-(6-(2-(2,4-Difluorophenyl)-1,1-difluoro-2-hydroxy-3-(1H-tetrazol-1-yl)propyl)pyridin-3-yl)phenyl)-2,2,2-trifluoroacetamide]: the MIC in test [1] (setting [4]) was under 0.5 µg/mL.

Turning to `OC(Cn1cnnn1)(c1ccc(F)cc1F)C(F)(F)c1ccc(-c2ccc(OC(F)F)cc2)cn1` (stereo not drawn) [Example 38, 1-(5-(4-(Difluoromethoxy)phenyl)pyridin-2-yl)-2-(2,4-difluorophenyl)-1,1-difluoro-3-(1H-tetrazol-1-yl)propan-2-ol], in test [1] (setting [4]), the MIC is under 0.5 µg/mL.

For `OC(Cn1cnnn1)(c1ccc(F)cc1F)C(F)(F)c1ccc(-c2ccc(OCC(F)(F)F)cc2)cn1` (stereo not drawn) [Example 39, 2-(2,4-Difluorophenyl)-1,1-difluoro-3-(1H-tetrazol-1-yl)-1-(5-(4-(2,2,2-trifluoroethoxy)phenyl)pyridin-2-yl)propan-2-ol], in test [1] (rating scale), the “Candida MIC Rating” value is listed as “C (>1.5-4)”.

For the compound `OC(Cn1cnnn1)(c1ccc(F)cc1F)C(F)(F)c1ccc(-c2ccc(SC(F)F)cc2)cn1` (stereo not drawn) [Example 40], in test [1] (setting [4]), the MIC was under 0.5 µg/mL.

Turning to `OC(Cn1cnnn1)(c1ccc(F)cc1F)C(F)(F)c1ccc(-c2ccc(CC(F)(F)F)cc2)cn1` (stereo not drawn) [Example 41, 2-(2,4-Difluorophenyl)-1,1-difluoro-3-(1H-tetrazol-1-yl)-1-(5-(4-(2,2,2-trifluoroethyl)phenyl)pyridin-2-yl)propan-2-ol], the MIC in test [1] (setting [4]) was under 0.5 µg/mL.

For `CNC(=O)c1ccc(-c2ccc(C(F)(F)C(O)(Cn3cnnn3)c3ccc(F)cc3F)nc2)cc1` (stereo not drawn) [Example 42, 4-(6-(2-(2,4-Difluorophenyl)-1,1-difluoro-2-hydroxy-3-(1H-tetrazol-1-yl)propyl)pyridin-3-yl)-N-methylbenzamide], the MIC in test [1] (setting [4]) is under 0.5 µg/mL.

As to `CCOC(=O)C(F)(F)Oc1ccc(-c2ccc(C(F)(F)C(O)(Cn3cnnn3)c3ccc(F)cc3F)nc2)cc1` (stereo not drawn) [Example 43, Ethyl 2-(4-(6-(2-(2,4-difluorophenyl)-1,1-difluoro-2-hydroxy-3-(1H-tetrazol-1-yl)propyl)pyridin-3-yl)phenoxy)-2,2-difluoroacetate], the MIC in test [1] (setting [4]) was under 0.5 µg/mL.

As for `OC(Cn1cnnn1)(c1ccc(F)cc1F)C(F)(F)c1ccc(-c2ccc(OCCC(F)(F)F)cc2)cn1` (stereo not drawn) [Example 44, 2-(2,4-Difluorophenyl)-1,1-difluoro-3-(1H-tetrazol-1-yl)-1-(5-(4-(3,3,3-trifluoropropoxy)phenyl)pyridin-2-yl)propan-2-ol], the MIC in test [1] (setting [4]) is under 0.5 µg/mL.

In the case of `OC(Cn1cnnn1)(c1ccc(F)cc1F)C(F)(F)c1ccc(-c2ccc(SCC(F)(F)F)cc2)cn1` (stereo not drawn) [Example 45, 2-(2,4-Difluorophenyl)-1,1-difluoro-3-(1H-tetrazol-1-yl)-1-(5-(4-((2,2,2-trifluoroethyl)thio)phenyl)pyridin-2-yl)propan-2-ol], the MIC in test [1] (setting [4]) was under 0.5 µg/mL.

Turning to `CC(F)(c1ccc(-c2ccc(OC(F)(F)F)cc2)cn1)C(O)(Cn1cnnn1)c1ccc(F)cc1F` (stereo not drawn) [Example 46, 2-(2,4-Difluorophenyl)-3-fluoro-1-(1H-tetrazol-1-yl)-3-(5-(4-(trifluoromethoxy)phenyl)-pyridin-2-yl)butan-2-ol], the MIC in test [1] (setting [4]) fell in the range of 0.5 to 1.5 µg/mL (≈ 0.982 to 2.94 µM).

Consider `CC(F)(c1ccc(-c2ccc(OC(F)(F)F)cc2)cn1)C(O)(Cn1cnnn1)c1ccc(F)cc1F` (stereo not drawn) [Example 47, 2-(2,4-Difluorophenyl)-3-fluoro-1-(1H-tetrazol-1-yl)-3-(5-(4-(trifluoromethoxy)phenyl)-pyridin-2-yl)butan-2-ol], for which, in test [1] (rating scale), the “Candida MIC Rating” value was “A (≤0.5)”.

As for `CC(F)(c1ccc(-c2ccc(F)cc2)cn1)C(O)(Cn1ncnn1)c1ccc(F)cc1F` (stereo not drawn) [Example 48, 2-(2,4-Difluorophenyl)-3-fluoro-3-(5-(4-fluorophenyl)pyridin-2-yl)-1-(2H-tetrazol-2-yl)butan-2-ol], the MIC in test [1] (setting [4]) was in the range of 1.5 to 4 µg/mL (≈ 3.38 to 9.02 µM).

Regarding `CC(F)(c1ccc(-c2ccc(F)cc2)cn1)C(O)(Cn1cnnn1)c1ccc(F)cc1F` (stereo not drawn) [Example 51, 2-(2,4-Difluorophenyl)-3-fluoro-3-(5-(4-fluorophenyl)pyridin-2-yl)-1-(1H-tetrazol-1-yl)butan-2-ol], in test [1] (rating scale), the “Candida MIC Rating” value is given as “A (≤0.5)”.

Take `CC(F)(c1ccc(-c2ccc(C(F)(F)F)cc2)cn1)C(O)(Cn1cnnn1)c1ccc(F)cc1F` (stereo not drawn) [Example 52, 2-(2,4-Difluorophenyl)-3-fluoro-1-(1H-tetrazol-1-yl)-3-(5-(4-(trifluoromethyl)phenyl)pyridin-2-yl)butan-2-ol]: the “Candida MIC Rating” value in test [1] (rating scale) was “C (>1.5-4)”.

As for `CC(F)(c1ccc(-c2ccc(C(F)(F)F)cc2)cn1)C(O)(Cn1cnnn1)c1ccc(F)cc1F` (stereo not drawn) [Example 53, 2-(2,4-Difluorophenyl)-3-fluoro-1-(1H-tetrazol-1-yl)-3-(5-(4-(trifluoromethyl)phenyl)pyridin-2-yl)butan-2-ol], the “Candida MIC Rating” value in test [1] (rating scale) is recorded as “B (>0.5-1.5)”.

In the case of `CC(F)(c1ccc(-c2ccc(Cl)cc2)cn1)C(O)(Cn1cnnn1)c1ccc(F)cc1F` (stereo not drawn) [Example 54, 3-(5-(4-Chlorophenyl)pyridin-2-yl)-2-(2,4-difluorophenyl)-3-fluoro-1-(1H-tetrazol-1-yl)butan-2-ol], the “Candida MIC Rating” value in test [1] (rating scale) is reported as “C (>1.5-4)”.

`CC(F)(c1ccc(-c2ccc(Cl)cc2)cn1)C(O)(Cn1cnnn1)c1ccc(F)cc1F` (stereo not drawn) [Example 55, 3-(5-(4-Chlorophenyl)pyridin-2-yl)-2-(2,4-difluorophenyl)-3-fluoro-1-(1H-tetrazol-1-yl)butan-2-ol]: the “Candida MIC Rating” value in test [1] (rating scale) was “A (≤0.5)”.

For `CC(F)(c1ccc(-c2ccc(OCC(F)(F)F)cc2)cn1)C(O)(Cn1cnnn1)c1ccc(F)cc1F` (stereo not drawn) [Example 56, 2-(2,4-Difluorophenyl)-3-fluoro-1-(1H-tetrazol-1-yl)-3-(5-(4-(2,2,2-trifluoroethoxy)phenyl)pyridin-2-yl)butan-2-ol], the “Candida MIC Rating” value in test [1] (rating scale) was “C (>1.5-4)”.

Consider `CC(F)(c1ccc(-c2ccc(OCC(F)(F)F)cc2)cn1)C(O)(Cn1cnnn1)c1ccc(F)cc1F` (stereo not drawn) [Example 57, 2-(2,4-Difluorophenyl)-3-fluoro-1-(1H-tetrazol-1-yl)-3-(5-(4-(2,2,2-trifluoroethoxy)phenyl)pyridin-2-yl)butan-2-ol], for which the “Candida MIC Rating” value in test [1] (rating scale) is listed as “A (≤0.5)”.

`OC(Cn1cncn1)(Cn1cncn1)c1ccc(F)cc1F` [Fluconazole, reference compound]: in test [1] (setting [3]), the minimal inhibitory concentration (MIC) was found to be 0.5 µg/mL (≈ 1.63 µM).

For `C[C@@H](c1ncncc1F)[C@](O)(Cn1cncn1)c1ccc(F)cc1F` [Voriconazole, reference compound], the MIC in test [1] (setting [3]) came out at 0.016 µg/mL (≈ 0.0458 µM).
